In PMC12102759 (Protein Science : A Publication of the Protein Society, 2025):
Where two headings read alike, the source gives them in different places.

System: PABPC1 PABC
Format: binding, human
Conditions: DMS-BM library, bait PABPC1 PABC, row aa = residue at this position; for DMS-derived PSSM value, position P6 / DMS-derived PSSM value, position P4: P = wild type; for DMS-derived PSSM value, position R14 / DMS-derived PSSM value (averaged), position R12: R = wild type; for DMS-derived PSSM value, position K7: K = wild type
[1] = prey ATXN2, peptide KSTLNPNAKEFNPRSF
[2] = prey ATXN2, peptide KSTLNPNAKEFNPRSF, S = wild type
[3] = prey ATXN2, peptide TLNPNAKEFNPRSFSQ, N = wild type
[4] = prey ATXN2, peptide TLNPNAKEFNPRSFSQ
[5] = prey ATXN2, peptide KSTLNPNAKEFNPRSF, F = wild type
[6] = prey ATXN2, TLNPNAKEFNPRSF(averaged) over the two overlapping peptides, N = wild type
[7] = prey ATXN2, peptide KSTLNPNAKEFNPRSF, N = wild type
[8] = prey ATXN2, TLNPNAKEFNPRSF(averaged) over the two overlapping peptides, E = wild type
[9] = prey ATXN2, TLNPNAKEFNPRSF(averaged) over the two overlapping peptides

TLNPNAKEFNPRSFSQ L2M (TMNPNAKEFNPRSFSQ)
DMS-derived PSSM value, position L2 (prey ATXN2, peptide TLNPNAKEFNPRSFSQ, L = wild type): 0.1261

KSTLNPNAKEFNPRSF P6H (KSTLNHNAKEFNPRSF)
DMS-derived PSSM value, position P6 [1]: 0.01713

KSTLNPNAKEFNPRSF R14S (KSTLNPNAKEFNPSSF)
DMS-derived PSSM value, position R14 [1]: 0.06387

KSTLNPNAKEFNPRSF P6Q (KSTLNQNAKEFNPRSF)
DMS-derived PSSM value, position P6 [1]: 0

KSTLNPNAKEFNPRSF S15G (KSTLNPNAKEFNPRGF)
DMS-derived PSSM value, position S15 [2]: 0

TLNPNAKEFNPRSFSQ N3S (TLSPNAKEFNPRSFSQ)
DMS-derived PSSM value, position N3 [3]: 0.4554

KSTLNPNAKEFNPRSF T3K (KSKLNPNAKEFNPRSF)
DMS-derived PSSM value, position T3 (prey ATXN2, peptide KSTLNPNAKEFNPRSF, T = wild type): 0

TLNPNAKEFNPRSF(averaged) T1I (ILNPNAKEFNPRSF)
DMS-derived PSSM value (averaged), position T1 (prey ATXN2, TLNPNAKEFNPRSF(averaged) over the two overlapping peptides, T = wild type): 0.08555

KSTLNPNAKEFNPRSF L4S (KSTSNPNAKEFNPRSF)
DMS-derived PSSM value, position L4 (prey ATXN2, peptide KSTLNPNAKEFNPRSF, L = wild type): 0

TLNPNAKEFNPRSFSQ P4S (TLNSNAKEFNPRSFSQ)
DMS-derived PSSM value, position P4 [4]: 0.01574

KSTLNPNAKEFNPRSF R14D (KSTLNPNAKEFNPDSF)
DMS-derived PSSM value, position R14 [1]: 0

KSTLNPNAKEFNPRSF F11L (KSTLNPNAKELNPRSF)
DMS-derived PSSM value, position F11 [5]: 0

TLNPNAKEFNPRSFSQ K7E (TLNPNAEEFNPRSFSQ)
DMS-derived PSSM value, position K7 [4]: 0.001823

TLNPNAKEFNPRSF(averaged) N10H (TLNPNAKEFHPRSF)
DMS-derived PSSM value (averaged), position N10 [6]: 0.03178

KSTLNPNAKEFNPRSF N12S (KSTLNPNAKEFSPRSF)
DMS-derived PSSM value, position N12 [7]: 0.008786

KSTLNPNAKEFNPRSF F11W (KSTLNPNAKEWNPRSF)
DMS-derived PSSM value, position F11 [5]: 0.203

TLNPNAKEFNPRSF(averaged) L2M (TMNPNAKEFNPRSF)
DMS-derived PSSM value (averaged), position L2 (prey ATXN2, TLNPNAKEFNPRSF(averaged) over the two overlapping peptides, L = wild type): 0.2157

TLNPNAKEFNPRSFSQ E8T (TLNPNAKTFNPRSFSQ)
DMS-derived PSSM value, position E8 (prey ATXN2, peptide TLNPNAKEFNPRSFSQ, E = wild type): 0.09413

TLNPNAKEFNPRSF(averaged) E8P (TLNPNAKPFNPRSF)
DMS-derived PSSM value (averaged), position E8 [8]: 0.1423

TLNPNAKEFNPRSF(averaged) R12D (TLNPNAKEFNPDSF)
DMS-derived PSSM value (averaged), position R12 [9]: 0.02577

KSTLNPNAKEFNPRSF S2K (KKTLNPNAKEFNPRSF)
DMS-derived PSSM value, position S2 [2]: 0

KSTLNPNAKEFNPRSF E10Y (KSTLNPNAKYFNPRSF)
DMS-derived PSSM value, position E10 (prey ATXN2, peptide KSTLNPNAKEFNPRSF, E = wild type): 0

TLNPNAKEFNPRSF(averaged) R12E (TLNPNAKEFNPESF)
DMS-derived PSSM value (averaged), position R12 [9]: 0.01393

TLNPNAKEFNPRSFSQ P4R (TLNRNAKEFNPRSFSQ)
DMS-derived PSSM value, position P4 [4]: 0

TLNPNAKEFNPRSFSQ F9G (TLNPNAKEGNPRSFSQ)
DMS-derived PSSM value, position F9 (prey ATXN2, peptide TLNPNAKEFNPRSFSQ, F = wild type): 0

TLNPNAKEFNPRSFSQ N5M (TLNPMAKEFNPRSFSQ)
DMS-derived PSSM value, position N5 [3]: 0.7094

TLNPNAKEFNPRSF(averaged) A6T (TLNPNTKEFNPRSF)
DMS-derived PSSM value (averaged), position A6 (prey ATXN2, TLNPNAKEFNPRSF(averaged) over the two overlapping peptides, A = wild type): 0.133

TLNPNAKEFNPRSF(averaged) E8L (TLNPNAKLFNPRSF)
DMS-derived PSSM value (averaged), position E8 [8]: 0

TLNPNAKEFNPRSF(averaged) R12Q (TLNPNAKEFNPQSF)
DMS-derived PSSM value (averaged), position R12 [9]: 0.05602

TLNPNAKEFNPRSFSQ K7N (TLNPNANEFNPRSFSQ)
DMS-derived PSSM value, position K7 [4]: 0.08014

TLNPNAKEFNPRSF(averaged) N3P (TLPPNAKEFNPRSF)
DMS-derived PSSM value (averaged), position N3 [6]: 0

KSTLNPNAKEFNPRSF P6T (KSTLNTNAKEFNPRSF)
DMS-derived PSSM value, position P6 [1]: 0.001755

TLNPNAKEFNPRSF(averaged) F9E (TLNPNAKEENPRSF)
DMS-derived PSSM value (averaged), position F9 (prey ATXN2, TLNPNAKEFNPRSF(averaged) over the two overlapping peptides, F = wild type): 0.02703

KSTLNPNAKEFNPRSF N5E (KSTLEPNAKEFNPRSF)
DMS-derived PSSM value, position N5 [7]: 0
